Laboratory results: the supplement of paper PMC8671470

Key:
Details in all cases: 72 h
[1] = test system: myeloid leukemia patient primary cells Pat.7; assay: cell viability (% survival relative to DMSO control); higher = less cytotoxic
Method in brief: (§1)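 Mononuclear cells from patients with AML or CML were thawed, purified on Ficoll and placed in RPMI 1640 with 10% FBS at 10,000 cells/well on 384-well plates. The plates came pre-printed with 70 compounds at five tenfold concentrations spanning 1–10,000 nM, in duplicate, and cells were exposed for 72 h. CellTiter-Glo gave viability, scaled between DMSO wells and wells with 10 μM proteasome inhibitor. Where reported, area under the curve was obtained from log-logistic fits with four parameters using the drc and PharmacoGx R packages.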

[2] = test system: myeloid leukemia patient primary cells Pat.4; assay: as above
Method in brief: as §1

[3] = test system: myeloid leukemia patient primary cells Pat.13; assay: as above
Method in brief: as §1

[4] = test system: myeloid leukemia patient primary cells Pat.5; assay: as above
Method in brief: as §1

[5] = test system: myeloid leukemia patient primary cells Pat.14; assay: as above
Method in brief: as §1

[6] = test system: myeloid leukemia patient primary cells Pat.6; assay: as above
Method in brief: as §1

[7] = test system: myeloid leukemia patient primary cells Pat.9; assay: as above
Method in brief: as §1

[8] = test system: myeloid leukemia patient primary cells Pat.1; assay: as above
Method in brief: as §1

[9] = test system: myeloid leukemia patient primary cells Pat.11; assay: as above
Method in brief: as §1

[10] = test system: myeloid leukemia patient primary cells Pat.3; assay: as above
Method in brief: as §1

[11] = test system: myeloid leukemia patient primary cells Pat.12; assay: as above
Method in brief: as §1

[12] = test system: myeloid leukemia patient primary cells Pat.2; assay: as above
Method in brief: as §1

[13] = test system: myeloid leukemia patient primary cells Pat.8; assay: as above
Method in brief: as §1

[14] = test system: myeloid leukemia patient primary cells Pat.15; assay: as above
Method in brief: as §1

[15] = test system: myeloid leukemia patient primary cells Pat.10; assay: as above
Method in brief: as §1

[16] = test system: HL-60; assay: area under dose-response curve (viability, 1 nM-10 uM) (fraction (0-1)); higher = more sensitive
Method in brief: (§2)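 HL-60 cells grown in RPMI 1640 with 10% FBS were rescreened against the full library in 384-well plates, in duplicate, at five tenfold concentrations from 1 to 10,000 nM, alongside DMSO or 100 nM of one of three metabolic inhibitors for 72 h at 37 °C, 5% CO2. Reference wells contained DMSO or 10 μM proteasome inhibitor. Viability was read with CellTiter-Glo and normalised to these reference wells, and where reported, area under the curve was taken from four-parameter log-logistic fits in drc and PharmacoGx.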

[17] = test system: HL-60; assay: cell viability (% survival relative to DMSO control); higher = less cytotoxic
Method in brief: as §2

Clc1cc(Cl)c(OCC#CI)cc1Cl [Haloprogin]
Details | area under dose-response curve, co-treatment: AZD3965 100 nM | area under dose-response curve, co-treatment: DMSO vehicle | area under dose-response curve, co-treatment: GSK2194069 100 nM | area under dose-response curve, co-treatment: pictilisib 100 nM | cell viability, 1 nM [%] | cell viability, 10 nM [%] | cell viability, 100 nM [%] | cell viability, 1000 nM [%] | cell viability, 10000 nM [%]
[1] | – | – | – | – | 72.1 | > 100 | > 100 | 3.48 | < 0
[2] | – | – | – | – | 88.7 | 87.3 | 85.3 | 13 | 28.3
[3] | – | – | – | – | 88.1 | 86 | 91 | 67.8 | 26.3
[4] | – | – | – | – | 87.2 | 69.7 | 2.24 | < 0 | 0.912
[5] | – | – | – | – | 88.5 | 96.7 | 68.3 | 7.52 | < 0
[6] | – | – | – | – | > 100 | > 100 | 93.3 | 54.7 | < 0
[7] | – | – | – | – | 80.9 | 62.4 | 43.4 | 3.45 | 3.68
[8] | – | – | – | – | 91.8 | 99.9 | 82 | 48.3 | 14.1
[9] | – | – | – | – | 94.1 | > 100 | 96 | 81.8 | 1.14
[10] | – | – | – | – | > 100 | 99.9 | 92.4 | 1.81 | < 0
[11] | – | – | – | – | 92.9 | 96.3 | 94.2 | 67.1 | 0.0486
[12] | – | – | – | – | 93.8 | 96.9 | 92.1 | 65 | < 0
[13] | – | – | – | – | 66.4 | > 100 | 81.4 | 67.1 | 1.78
[14] | – | – | – | – | 85.7 | 98.8 | 85.4 | 66.8 | 6.74
[15] | – | – | – | – | 43.6 | 75.4 | 46.9 | 23.9 | 93.2
[16] | 0.125 | 0.032 | < 0.0301 | 0.0952 | – | – | – | – | –

cell viability [%], [17]
Details | 0.001 µM | 0.01 µM | 0.1 µM | 1 µM | 10 µM
co-treatment: AZD3965 100 nM | 103 | 102 | 104 | 99.73 | 3.01
co-treatment: DMSO vehicle | 102 | 103 | 106 | 104 | 57.3
co-treatment: GSK2194069 100 nM | 95.5 | 107 | 96.4 | 105 | 71.4
co-treatment: pictilisib 100 nM | 92.6 | 96.3 | 107 | 105 | 14.4
